For the data set, the system named is fresh human skin explant. Put plainly: Gentian violet delivery into excised human skin explant by loaded microneedle array. It is filed as in vitro ADME. The conditions noted are these: human skin explant from abdominoplasty, red fluorescence filters. The source says:
FIGS. 3A and 3B show cross-sections of excised human skin showing penetration by needles loaded with gentian violet. […] The sample was sectioned at an angle nearly parallel to the needle array geometry, allowing observation of multiple needles. The delivery device backing material is visible as a layer between the OCT and the skin sample. The left needle is itself cross-sectioned, showing the gentian violet solution loaded into the needle shaft. The middle needle appears to penetrate both the stratum corneum and the epidermis, with the needle tip in full contact with the dermis. A third needle (on the right) is visible but is out of the focal plane. […] The Gentian violet was detected using a fluorescent microscope under red fluorescence filters (excitation 546 nm; emission 580 nm). The skin section was stained with DAPI to allow nuclei visualization.
A microneedle array in the transdermal delivery device loaded with gentian violet solution was applied to fresh human skin explant (resulting from abdominoplasty procedure) and immediately placed into tissue freezing medium (OCT) and frozen to -28° C. The sample was sectioned at an angle nearly parallel to the needle array geometry, and multiple needles were observed (FIG. 3). In FIG. 3, the microneedle array transdermal delivery device backing material is visible as a layer between the OCT and the skin sample. […]

The record followed here is patent US20230278266A1, “MICRONEEDLE ARRAYS FORMED FROM POLYMER FILMS” (TransDerm, Inc., priority 2007, published 2023).

Regarding `CN(C)c1ccc(C(=C2C=CC(=[N+](C)C)C=C2)c2ccc(N(C)C)cc2)cc1` [gentian violet], the “skin layer reached, fluorescence microscopy of skin section” value is “delivered to human epidermis and dermis”.
